According to patent US4241083A, “Germicidal composition for agriculture and horticulture” (priority 1978, dated 1980):

What was measured:
Erysiphe cichoracearum = test: Prevention effect for powdery mildew on eggplants (Ex. 23); assay type: in vivo; conditions: emulsion; for Germicidal damage to seedlings: eggplant seedlings; for Percentage of leaf area with disease spots / Percentage of leaves attacked with the disease / Prevention value per leaf (Perfect prevention = 100): third or ninth days, read fifteenth day after inoculation
Method: The emulsion was prepared by blending 25 g of ethyl 2-(2-hydroxyethylamino)-3-benzoylpropionate, 25 ml of isopropanol, 3 g of Demol T (formalin condensed naphthalenesulfonate available from Kao Sekken Inc.), 2 g of Emal 10 (sodium lauryl sulphate available from Kao Sekken Inc.) and 45 g of water.
The prevention effect of the emulsion prepared above for powdery mildew on eggplants caused by Erysiphe cichoracearum was examined in the following manner.
Eggplant seedlings of Shinkitsushin variety planted in sections in two rows of three were inoculated with the above germ by brushing on spores from other eggplant leaf attacked with the powdery mildew.
An aqueous solution of ethyl 2-(2-hydroxyethylamino)-3-benzoylpropionate (2000 ppm and 2500 ppm) was sprayed on the test plant on the third or ninth days after the seedlings were inoculated with the germ by means of glass sprayer.
(§1) The leaf area on which powdery mildew spots appeared was measured on the fifteenth day after the seedlings were inoculated with the germ. The spotted area is expressed as a prevention value.

[1] = Toxicity, LD50 for a mouse; conditions: in vivo
Toxicity, LD50 for a rat = conditions: in vivo
Sphaerotheca fuliginea = test: Prevention effect for powdery mildew on cucumbers (Ex. 20, 21); assay type: in vivo; conditions: Table 6; for Germicidal damage to seedlings: cucumber seedlings; for Percentage of leaf area with disease spots / Percentage of leaves attacked with the disease / Prevention value per leaf (Perfect prevention = 100): third and ninth days, read fifteenth day after inoculation
Method: The prevention effect for powdery mildew on cucumbers caused by Sphaerotheca fuliginea was examined in the following manner.
Cucumber seedlings (bifoliate age) of Tokiwa Hikari No. 3 (p type) variety planted in sections of two rows of three were inoculated with the above germ by brushing on spores from a cucumber leaf attacked with powdery mildew. […]
The leaf area on which powdery mildew spots appeared was measured on the fifteenth day after the seedlings were inoculated with the germ. The spotted area is expresses as a prevention value.
The same experiment as Example 20 was carried out except that isopropyl 2-(2-hydroxyethylamino)-3-benzoyl-propionate hydrochloride was used instead of ethyl 2-(2-hydroxyethylamino)-3-benzoylpropionate hydrochloride.

Valsa ceratosperma = test: Length of disease spots on cut apple branches immersed in germicide before inoculation (Ex. 16); assay type: in vivo; conditions: 25° C.
Method: Branches of Delicious apple (branch diameter: about 1 cm. thick) grown for 1-2 years were cut to 10 cm. length. The cut branches were dried in a low temperature chamber (3° C.) until the water content of the cut branches became 50%. The dried cut branches were immersed in an aqueous solution of ethyl 2-(2-hydroxyethylamino)-3-benzoylpropionate hydrochloride (500 ppm, 1000 ppm and 2500 ppm) for one minute and then dried.
Each cut branch was end bored by a white heated 8 mm diameter cork borer. Valsa ceratosperma, previously cultured for four days on a potato dextrose-agar culture medium, was introduced into the branch by inoculating the branch with the Valsa ceratosperma containing culture by means of the sterilized cork borer. The branches prepared in this way were placed on wet filter paper spread in a polyethylene tray. The tray was inserted into a polyethylene bag which was sealed and then the bag was put into a thermostat (25° C.) for various controlled times.
After removal from the thermostat, the length of disease spots on each branch was measured.
A similar experiment for comparison was carried out using Benomyl, i.e. methyl-1-(buthylcarbamoyl)-2-benzimidazole carbamate as the germicide. The results of the comparative experiment and also a control experiment, in which the dried cut branches were not immersed in germicide (blank), are also shown in Table 2.

apple canker = conditions: cited from earlier work
Sphaerotheca humuli = test: Prevention effect for powdery mildew on strawberries (Ex. 22); assay type: in vivo; conditions: for Germicidal damage to seedlings: strawberry seedlings; for Percentage of leaf area with disease spots / Percentage of leaves attacked with the disease / Prevention value per leaf (Perfect prevention = 100): third and ninth days, read fifteenth day after inoculation
Excerpt: The prevention effect for powdery mildew on strawberries caused by Sphaerotheca humuli was examined in the following manner.
Strawberry seedlings (3-4 leaves) of Danar variety dug up and planted in a pot in two row of three without drying the roots was inoculated with the above germ by brushing on the spores from a strawberry leaves attacked with powdery mildew.
An aqueous solution of sec-butyl 2-(2-hydroxyethylamino)-3-benzoylpropionate hydrochloride was sprayed on the test plant on the third and ninth days after the seedlings were inoculated with the germ.
as §1

Q: Which results are given for `CCOC(=O)C(CC(=O)c1ccccc1)NCCO` (stereo not drawn) [ethyl 2-(2-hydroxyethylamino)-3-benzoylpropionate]?
A: Germicidal damage to seedlings (Erysiphe cichoracearum; 2000 ppm): none; Percentage of leaf area with disease spots (Erysiphe cichoracearum; 2000 ppm): 0%; Percentage of leaves attacked with the disease (Erysiphe cichoracearum; 2000 ppm): 0%; Prevention value per leaf (Perfect prevention = 100) (Erysiphe cichoracearum; 2000 ppm): 100; Germicidal damage to seedlings (Erysiphe cichoracearum; 2500 ppm): none; Percentage of leaf area with disease spots (Erysiphe cichoracearum; 2500 ppm): 0%; Percentage of leaves attacked with the disease (Erysiphe cichoracearum; 2500 ppm): 0%; Prevention value per leaf (Perfect prevention = 100) (Erysiphe cichoracearum; 2500 ppm): 100; LD50 [1]: 7600 mg/kg; LD50 (Toxicity, LD50 for a rat): 4790 mg/kg

Q: With `CC(C)OC(=O)C(CC(=O)c1ccccc1)NCCO.Cl` (stereo not drawn) [isopropyl 2-(2-hydroxyethylamino)-3-benzoyl-propionate hydrochloride] as the compound, how does the “Germicidal damage to seedlings” value (Sphaerotheca fuliginea; 1500 ppm) read?
A: none

Q: And the “Percentage of leaf area with disease spots” value (“Percentage of leaf area” below) (Sphaerotheca fuliginea; 1500 ppm)?
A: 8.9%

Q: What about the “Percentage of leaves attacked with the disease” value (“Percentage of leaves attacked” for short) (Sphaerotheca fuliginea; 1500 ppm) of the same compound?
A: 55.6%

Q: What about the “Prevention value per leaf (Perfect prevention = 100)” value (from here on “Prevention value per leaf”) (Sphaerotheca fuliginea; 1500 ppm) of the same compound?
A: 88.5

Q: And the “Germicidal damage to seedlings” value (Sphaerotheca fuliginea; 2000 ppm)?
A: none

Q: And the “Percentage of leaf area” value (Sphaerotheca fuliginea; 2000 ppm)?
A: 0%

Q: What about the “Percentage of leaves attacked” value (Sphaerotheca fuliginea; 2000 ppm) of the same compound?
A: 0%

Q: What about the “Prevention value per leaf” value (Sphaerotheca fuliginea; 2000 ppm) of the same compound?
A: 100

Q: And the “Germicidal damage to seedlings” value (Sphaerotheca fuliginea; 2500 ppm)?
A: none

Q: What about the “Percentage of leaf area” value (Sphaerotheca fuliginea; 2500 ppm) of the same compound?
A: 0%

Q: And the “Percentage of leaves attacked” value (Sphaerotheca fuliginea; 2500 ppm)?
A: 0%

Q: What about the “Prevention value per leaf” value (Sphaerotheca fuliginea; 2500 ppm) of the same compound?
A: 100

Q: With `CCCCNC(=O)n1c(NC(=O)OC)nc2ccccc21` [methyl-1-(buthylcarbamoyl)-2-benzimidazole carbamate, reference compound] as the compound, how does the “Length of disease spot” value (Valsa ceratosperma; 500 ppm, after 3 days) read?
A: 1.0 mm

Q: What about the “Length of disease spot” value (Valsa ceratosperma; 500 ppm, after 5 days) of the same compound?
A: 1.0 mm

Q: And the “Length of disease spot” value (Valsa ceratosperma; 500 ppm, after 7 days)?
A: 1.8 mm

Q: And the “Length of disease spot” value (Valsa ceratosperma; 1000 ppm, after 3 days)?
A: 0.5 mm

Q: And the “Length of disease spot” value (Valsa ceratosperma; 1000 ppm, after 5 days)?
A: 0.5 mm

Q: What about the “Length of disease spot” value (Valsa ceratosperma; 1000 ppm, after 7 days) of the same compound?
A: 1.0 mm

Q: And the “Length of disease spot” value (Valsa ceratosperma; 2500 ppm, after 3 days)?
A: 0 mm

Q: What about the “Length of disease spot” value (Valsa ceratosperma; 2500 ppm, after 5 days) of the same compound?
A: 0 mm

Q: What about the “Length of disease spot” value (Valsa ceratosperma; 2500 ppm, after 7 days) of the same compound?
A: 0 mm

Q: What about the “effect after the canker attacks” value (apple canker) of the same compound?
A: can only weakly prevent the progress of the disease

Q: With `CCC(C)OC(=O)C(CC(=O)c1ccccc1)NCCO.Cl` (stereo not drawn) [sec-butyl 2-(2-hydroxyethylamino)-3-benzoylpropionate hydrochloride] as the compound, how does the “Germicidal damage to seedlings” value (Sphaerotheca humuli; 1000 ppm) read?
A: none

Q: And the “Percentage of leaf area” value (Sphaerotheca humuli; 1000 ppm)?
A: 46.1%

Q: What about the “Percentage of leaves attacked” value (Sphaerotheca humuli; 1000 ppm) of the same compound?
A: 83.3%

Q: And the “Prevention value per leaf” value (Sphaerotheca humuli; 1000 ppm)?
A: 40.4

Q: What about the “Germicidal damage to seedlings” value (Sphaerotheca humuli; 2000 ppm) of the same compound?
A: none

Q: What about the “Percentage of leaf area” value (Sphaerotheca humuli; 2000 ppm) of the same compound?
A: 0%

Q: And the “Percentage of leaves attacked” value (Sphaerotheca humuli; 2000 ppm)?
A: 0%

Q: And the “Prevention value per leaf” value (Sphaerotheca humuli; 2000 ppm)?
A: 100

Q: What about the “Germicidal damage to seedlings” value (Sphaerotheca humuli; 3000 ppm) of the same compound?
A: none

Q: And the “Percentage of leaf area” value (Sphaerotheca humuli; 3000 ppm)?
A: 0%

Q: What about the “Percentage of leaves attacked” value (Sphaerotheca humuli; 3000 ppm) of the same compound?
A: 0%

Q: And the “Prevention value per leaf” value (Sphaerotheca humuli; 3000 ppm)?
A: 100

Q: With `COC(=O)NC(=S)Nc1ccccc1NC(=S)NC(=O)OC` [thiophanate methyl, 1,2-bis(3-methylcarbonyl-2-thioureido)] as the compound, how does the “effect after the canker attacks” value (apple canker) read?
A: can only weakly prevent the progress of the disease
